Patent US20040230033A1, “Substrate-derived affinity labels, and uses thereof” (priority 2003, published 2004)
Several values for one entry are separate records, joined by “and”; a condition that tells them apart may be missing. Equal values may be shown once. Where a SMILES comes first, the peptide text is derived from it. The star is where a group is joined. Biotin = O=C1N[C@H]2[C@H](CS[C@H]2CCCCC(=O)*)N1; Cbz = O=C(OCc1ccccc1)*; CHN2 = [N-]=[N+]=C*; Ahx = NCCCCCC(=O)O; CH2Cl = ClC*

Legend:
SrtAΔN [1] = molecular target: T1, SrtAΔN (Staphylococcus aureus, UniProt Q2FV99); assay: biochemical; format: biochemical, S. aureus; conditions: for k1 (first-order rate constant ki for covalent modification of SrtAΔN) / ki/Ki (specificity constant): 37° C., means ± S.E.M., four determinations; for k1 (first-order rate constant ki for covalent modification of SrtAΔN): pH 7.5, inhibitor 25-200 μM; for ki/Ki (specificity constant): pH 7.5
T1 construct: The region of the SrtA gene lacking the N-terminal membrane domain was then PCR-amplified; made in house; host or cells: E. coli HMS174(DE3)pLysS
Description: Using methods described previously, SrtAΔN activity was measured with the internally quenched substrate 4([4-(dimethylamino)phenyl]azo)-benzoyl(Dabcyl)-[…][(2-aminoethyl)-amino]napthalenel-sulphonyl (Edans) (prepared by standard Fmoc solid-phase synthesis) on a CytoFluor 4000® multi-well fluorimeter (PerSeptive Biosystems, Foster City, Calif., U.S.A.). All SrtAAN assays were performed at 37° C. (in triplicate) in 50 mM Tris/HCI (pH 7.5) containing 150 mM NaCl, 5 mM CaCl2, 5 mM NH,-Gly3 and 5 mM dithiothreitol (SrtA buffer). Wells contained approx. 10 pM of purified SrtAoN and 50 pM of substrate, in a final volume of 200, ul. The Km and kcat values for the SrtAΔN-catalysed cleavage of the internally quenched sub-strate were calculated by fitting the data points directly into the Michaelis-Menten equation for substrate hydrolysis, using GraFit® software (Erithacus Software, Horley, Surrey, U.K.).
Data from the curves were fitted, using non-linear regression analysis, to the integrated rate equation [P]=PJ1-e “-Pp”). This equation represents a first-order rate process for the formation of product P as a function of time, where kapp is the apparent rate constant and P. represents the concentration of product at a time approaching infinity. Using five different concentrations for each inhibitor (25, 50, 100, 150 and 200/μM), the values kapp and P∞were determined and utilized to evaluate the apparent second-order rate constant A for the inactivation of SrtAΔN in the presence of the substrate. The individual kinetic constants ki and Ki were then evaluated for both inhibitors from a plot of 1/A versus inhibitor concentration [I] [28], and the specificity constant k;/K; was calculated.
Data from the progress curves for SrtΔN-catalysed hydrolysis of the internally quenched substrate Dabcyl-[…]Edans in the presence of five different concentrations of inhibitors I and II (25, 50, 100, 150 and 200, W) were fitted by non-linear regression analysis to the integrated rate equation [P]=P∞(1-e^−kaPPt). The P∞. and kapp values were determined and used to evaluate the apparent second-order rate constant A for inactivation of SrtΔN in the presence of substrate. The individual kinetic constants k and K were then evaluated from a plot of 1/A versus inhibitor concentration [I], and the specificity constant for each inhibitor (kiKi) calculated. Values represent the means ±S.E.M. for four determinations.

SrtAΔN [2] = molecular target: T1, SrtAΔN; assay: Affinity labelling of recombinant SrtAΔN, Western blot with streptavidin-alkaline phosphatase; format: binding, S. aureus
Description: (§1) To detect the affinity-labelled recombinant and wild-type SrtA, samples were analysed by Western-blot analysis [19,24-26]. Briefly, samples were treated with denaturing treatment buffer and the proteins separated by SDS/PAGE on 4-20% (w/v) linear gradient gels, followed by semi-dry transfer to a nitrocellulose membrane (Schleicher and Schiill, Dassel, Germany). After transfer, non-specific binding sites were quenched with a 3% (w/v) solution of BSA in 20 mM Tris/HCI (pH 7.4), containing 150 mM NaCl. To detect the biotin group, the membrane was incubated with a streptavidin-alkaline phosphatase conjugate (1:500). […] Bound antibody was detected with a goat anti-rabbit IgG alkaline phosphatase conjugate (1:20000).
In lane 3, the bound fraction eluted from the column with 10 mM imidazole (purified SrtAΔN) was also analysed.

[3] = molecular target: recombinant sortase SrtAΔN (His6-tagged) (Staphylococcus aureus (Oxford strain)) (UniProt Q2FV99)
cathepsin B [4] = molecular target: T2, cathepsin B (Homo sapiens, UniProt P07858); conditions: cathepsin B/Cbz-Phe-Phe-CH2Cl versus SrtAΔN/II
cathepsin B [5] = molecular target: T2, cathepsin B; conditions: reference [30]; cited from earlier work
wild-type SrtA = molecular target: T3, wild-type SrtA (Staphylococcus aureus, UniProt Q2FV99); assay: Affinity labelling of wild-type SrtA in crude S. aureus cell lysates, Western blot; format: binding; conditions: lysate probed with III; additional 24 kDa band, confirmed with antiserum
T3 construct: endogenous in cells; host or cells: S. aureus Oxford strain (ATCC 9144)
Description: For the disclosure of wild-type SrtA in S. aureus, a 50 ml overnight culture of the organism in LB broth was prepared. The bacterial cells were centrifuged at 3000 g for 15 min and the resulting pellet was washed in 5 ml of SrtA buffer. The washed bacteria were then resuspended in 1 ml of SrtA buffer containing 0.1 g of glass beads. The suspension was vortex-mixed continuously for 5 min followed by centrifugation at 1500 g for 15 min to remove the beads and unbroken cells. To 100 pl of purified SrtAΔN and the crude bacterial preparations, the inhibitor biotin-Ahx-Leu-Pro-Ala-Thr-CHN2 (III) was added (final concentration 50 pM) before incubation at 37° C. for 30 min.
To detect the affinity-labelled recombinant and wild-type SrtA, samples were analysed by Western-blot analysis. […] Bound antibody was detected with a goat anti-rabbit IgG alkaline phosphatase conjugate (1:20000).
Western-blotting experiments were performed with biotinAhx-Leu-Pro-Ala-Thr-CHN2 (III) to detect the presence of wildtype SrtA in crude cell lysates from S. aureus (Oxford strain; see FIG. 8B). […] In the duplicate lanes 3 and 4, which contained cell lysate “probed” with biotin-Ahx-Leu-Pro-Ala-Thr-CHN2 (III), the BCCP protein was detected along with an additional protein of apparent molecular mass 24 kDa. […]

SrtB = SrtB (Staphylococcus aureus, UniProt Q2FZE3); format: binding; conditions: crude S. aureus extracts, iron not added to culture media
Description: as §1

CC(C)C[C@H](NC(=O)OCc1ccccc1)C(=O)N1CCC[C@H]1C(=O)N[C@@H](C)C(=O)N[C@H](C(=O)C=[N+]=[N-])[C@@H](C)O [Inhibitor I, Cbz-Leu-Pro-Ala-Thr-CHN2] (Cbz-LPAT-CHN2)
Ki (SrtAΔN [1]): 0.22 µM
k1 (first-order rate constant ki for covalent modification of SrtAΔN) (SrtAΔN [1]): 5.8×10^−3 min^−1 and 5.8 ± 0.6 × 10^−3 min^−1
ki/Ki (specificity constant) (SrtAΔN [1]): 2.2×10^4 M^−1 − min^−1 and 2.2 ± 0.2 × 10^4 M^−1 − min^−1

CC(C)C[C@H](NC(=O)OCc1ccccc1)C(=O)N1CCC[C@H]1C(=O)N[C@@H](C)C(=O)N[C@H](C(=O)CCl)[C@@H](C)O [Inhibitor II, Cbz-Leu-Pro-Ala-Thr-CH2Cl] (Cbz-LPAT-CH2Cl)
Ki (SrtAΔN [1]): 0.21 µM
k1 (first-order rate constant ki for covalent modification of SrtAΔN) (SrtAΔN [1]): 1.1×10^−2 min^−1 and 1.1 ± 0.1 × 10^−2 min^−1
ki/Ki (specificity constant) (SrtAΔN [1]): 5.3×10^4 M^−1 − min^−1 and 5.3 ± 0.6 × 10^4 M^−1 − min^−1
covalently modifies SrtAΔN more rapidly than peptidyl-diazomethane I (by ki) (SrtAΔN [1]; II versus I): approx. 2 fold
inactivates SrtAΔN more rapidly than analogous diazomethane sequence I (by specificity constants) (SrtAΔN [1]; II versus I): approx. 2 fold

O=C(O)c1cc[c]([Hg][OH])cc1 [pHMB, reference compound]
effect of pre-treatment on SrtAΔN labelling by III (SrtAΔN [2]; purified SrtAΔN pre-treated with thiol-directed inhibitor before probing with III): complete diminution of SrtAΔN labelling

Cbz-Leu-Pro-Ala-Thr-CH2Cl (II), peptidyl-chloromethane inhibitor (peptide)
ki (first-order rate constant of inactivation) [3]: 0.011 min⁻¹
ki/Ki (specificity constant) [3]: 883 M⁻¹ s⁻¹

Cbz-Leu-Pro-Ala-Thr-CHN2 (I), peptidyl-diazomethane inhibitor (peptide)
ki (first-order rate constant of inactivation) [3]: 0.0058 min⁻¹
ki/Ki (specificity constant) [3]: 367 M⁻¹ s⁻¹

Cbz-Phe-Phe-CH,Cl
ki greater than irreversible modification of SrtAΔN by peptidyl-chloromethane II (cathepsin B [4]): approx. 1000 fold
ki for alkylation of the active-site cysteine residue of cathepsin B (cathepsin B [5]): 12.5 min⁻¹

{Biotin-Ahx}-LPAT-CHN2 [Inhibitor III]
nature of binding of biotinylated inhibitor to SrtAΔN (SrtAΔN [2]; 50 μM, 37° C., 30 min, approx. 30 kDa band labelled in crude E. coli lysate and purified fraction): active-site-directed
detection of wild-type SrtA in crude S. aureus lysate (wild-type SrtA): affinity-labelled SrtA
selectivity of labelling, SrtA versus SrtB (SrtB): selectively disclosed wild-type SrtA, but not SrtB
